Measurements as given in ChEMBL document CHEMBL5375962 (J Med Chem, 2023).
Values after ≈ are worked out from the molar mass of the structure shown. Each block holds one compound with its values, some of them ahead of it. Active and inactive are the calls of the source. No cut-off for these calls is given here.

Tests used:
[1] = Oral bioavailability in rat at 3 mg/kg measured after 12 hrs; assay type: ADME, organism-based; conditions: in vivo
[2] = Half life in dog at 3 mg/kg, po; assay type: ADME, organism-based, Canis lupus familiaris; conditions: in vivo
[3] = Half life in dog at 1 mg/kg, iv; assay type: ADME, organism-based, Canis lupus familiaris; conditions: in vivo
[4] = Clearance in dog at 1 mg/kg, iv; assay type: ADME, organism-based, Canis lupus familiaris; conditions: in vivo
[5] = Metabolic stability in human liver microsomes assessed as compound degradation measured after 30 mins; assay type: ADME, Microsome; conditions: read-out: Drug degradation
[6] = Metabolic stability in rat liver microsomes assessed as compound degradation measured after 30 mins; assay type: ADME, Microsome; conditions: read-out: Drug degradation
[7] = Half life in rat at 3 mg/kg, po measured after 12 hrs; assay type: ADME, organism-based; conditions: in vivo
[8] = Clearance in rat hepatocytes measured per 10^6 cells; assay type: ADME, cell-based, Hepatocyte; conditions: read-out: CLH
[9] = Inhibition of mouse KHK-A
[10] = AUC in rat at 3 mg/kg, po measured after 12 hrs; assay type: ADME, organism-based; set-up: dose 3 mg/kg, time 12 hrs, route po; conditions: in vivo
[11] = Cmax in dog at 3 mg/kg, po; assay type: ADME, organism-based, Canis lupus familiaris; set-up: dose 3 mg/kg, route po; conditions: in vivo
[12] = Cmax in rat at 1 mg/kg, iv measured after 12 hrs; assay type: ADME, organism-based; set-up: dose 1 mg/kg, time 12 hrs, route iv; conditions: in vivo
[13] = Clearance in dog hepatocytes measured per 10^6 cells; assay type: ADME, cell-based, Canis lupus familiaris, Hepatocyte; conditions: read-out: CLH
[14] = Volume of distribution in rat at 1 mg/kg, iv measured after 12 hrs; assay type: ADME, organism-based; conditions: in vivo
[15] = Metabolic stability in mouse liver microsomes assessed as compound degradation measured after 30 mins; assay type: ADME, Microsome; conditions: read-out: Drug degradation
[16] = Volume of distribution in dog at 1 mg/kg, iv; assay type: ADME, organism-based, Canis lupus familiaris; conditions: in vivo
[17] = Tmax in dog at 3 mg/kg, po; assay type: ADME, organism-based, Canis lupus familiaris; conditions: in vivo
[18] = Clearance in rat at 1 mg/kg, iv measured after 12 hrs; assay type: ADME, organism-based; conditions: in vivo
[19] = AUC in rat at 1 mg/kg, iv measured after 12 hrs; assay type: ADME, organism-based; set-up: time 12 hrs, dose 1 mg/kg, route iv; conditions: in vivo
[20] = Permeability in MDCK cells assessed as drug transport measured over 1 hr in presence of P-gp; assay type: ADME, cell-based, Canis lupus familiaris; conditions: dog
[21] = Cmax in rat at 3 mg/kg, po measured after 12 hrs; assay type: ADME, organism-based; set-up: dose 3 mg/kg, time 12 hrs, route po; conditions: in vivo
[22] = Half life in rat at 1 mg/kg, iv measured after 12 hrs; assay type: ADME, organism-based; conditions: in vivo
[23] = Tmax in rat at 3 mg/kg, po measured after 12 hrs; assay type: ADME, organism-based; conditions: in vivo
[24] = Clearance in human hepatocytes measured per 10^6 cells; assay type: ADME, cell-based, Hepatocyte; conditions: read-out: CLH
[25] = Metabolic stability in dog liver microsomes assessed as compound degradation measured after 30 mins; assay type: ADME, Canis lupus familiaris, Microsome; conditions: read-out: Drug degradation
[26] = AUC in dog at 1 mg/kg, iv; assay type: ADME, organism-based, Canis lupus familiaris; set-up: dose 1 mg/kg, route iv; conditions: in vivo
[27] = Oral bioavailability in dog at 3 mg/kg; assay type: ADME, organism-based, Canis lupus familiaris; conditions: in vivo
[28] = Inhibition of mouse KHK-C
Hepatocyte = experiment: Cytotoxicity against rat Primary hepatocyte; assay type: toxicity, cell-based; conditions: hepatocytes
[29] = Thermodynamic solubility of the compound […] at pH 7.4; assay type: physicochemical; conditions: read-out: Therm_solubility
[30] = Cmax in dog at 1 mg/kg, iv; assay type: ADME, organism-based, Canis lupus familiaris; set-up: dose 1 mg/kg, route iv; conditions: in vivo
[31] = AUC in dog at 3 mg/kg, po; assay type: ADME, organism-based, Canis lupus familiaris; set-up: dose 3 mg/kg, route po; conditions: in vivo
Ketohexokinase [32] = biological target: T1, Ketohexokinase (Homo sapiens, UniProt P50053); experiment: Inhibition of KHK in human HepG2 cells incubated for 3 hrs by Rapidfire MS analysis; assay type: cell-based
T1 sequence (P50053 whole entry): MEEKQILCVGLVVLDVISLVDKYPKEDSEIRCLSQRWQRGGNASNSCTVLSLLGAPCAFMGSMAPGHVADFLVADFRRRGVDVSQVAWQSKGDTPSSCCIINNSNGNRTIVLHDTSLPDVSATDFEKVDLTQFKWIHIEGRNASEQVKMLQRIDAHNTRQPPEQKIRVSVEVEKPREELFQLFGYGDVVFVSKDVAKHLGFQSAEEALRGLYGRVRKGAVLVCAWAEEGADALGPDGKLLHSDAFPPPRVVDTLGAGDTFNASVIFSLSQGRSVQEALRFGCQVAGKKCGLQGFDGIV

Mus musculus [33] = experiment: Reduction in fructose level in 5 hrs fasted C57B6 mouse assessed as maximum effect at 100 mg/kg administered via oral gavage measured upto 180 mins by oral fructose challenge assay; assay type: functional, organism-based
Mus musculus [34] = experiment: Reduction in fructose level in 5 hrs fasted C57B6 mouse by measuring pharmacodynamic response administered via oral gavage for 30 mins followed by oral fructose challenge and measured upto 180 mins by oral fructose tolerance test; assay type: functional; conditions: dose 30-100 mg/kg, time […]
[35] = Drug distribution in mouse heart at 30 mg/kg, po measured at 180 mins; assay type: ADME, organism-based; conditions: in vivo, 3 h
[36] = Cmax in rat at 2 mg/kg, po measured after 12 hrs; assay type: ADME, organism-based; set-up: time 12 hrs, dose 2 mg/kg, route po; conditions: in vivo
[37] = Oral bioavailability in rat at 2 mg/kg measured after 12 hrs; assay type: ADME, organism-based; conditions: in vivo
[38] = Oral bioavailability in dog at 2 mg/kg; assay type: ADME, organism-based, Canis lupus familiaris; conditions: in vivo
[39] = AUC in dog at 2 mg/kg, po; assay type: ADME, organism-based, Canis lupus familiaris; set-up: dose 2 mg/kg, route po; conditions: in vivo
[40] = Unbound fraction in human plasma at 1 uM; assay type: ADME, cell-free
[41] = Half life in rat at 2 mg/kg, po measured after 12 hrs; assay type: ADME, organism-based; conditions: in vivo
[42] = Drug distribution in mouse kidney at 30 mg/kg, po measured at 180 mins; assay type: ADME, organism-based; conditions: in vivo, 3 h
[43] = Unbound fraction in dog plasma at 1 uM; assay type: ADME, cell-free, Canis lupus familiaris
[44] = Cmax in dog at 2 mg/kg, po; assay type: ADME, organism-based, Canis lupus familiaris; set-up: dose 2 mg/kg, route po; conditions: in vivo
[45] = Drug distribution in mouse liver at 30 mg/kg, po measured at 180 mins; assay type: ADME, organism-based; conditions: in vivo, 3 h
[46] = Tmax in dog at 2 mg/kg, po; assay type: ADME, organism-based, Canis lupus familiaris; conditions: in vivo
[47] = Tmax in rat at 2 mg/kg, po measured after 12 hrs; assay type: ADME, organism-based; conditions: in vivo
[48] = AUC in rat at 2 mg/kg, po measured after 12 hrs; assay type: ADME, organism-based; set-up: time 12 hrs, dose 2 mg/kg, route po; conditions: in vivo
[49] = Unbound fraction in mouse plasma at 1 uM; assay type: ADME, cell-free
[50] = Half life in dog at 2 mg/kg, po; assay type: ADME, organism-based, Canis lupus familiaris; conditions: in vivo
[51] = Unbound fraction in rat plasma at 1 uM; assay type: ADME, cell-free
Ketohexokinase [52] = biological target: T1, Ketohexokinase; experiment: Inhibition of human KHK-C preincubated for 15 mins followed by substrate addition and measured after 20 mins in presence of ATP by Rapidfire MS analysis

- bioavailability [1]: 95%
- half-life [2]: 600 min
- half-life [3]: 300 min
- clearance [4]: 23 mL/min/kg
- metabolised at 0.5 h [5]: 3%
- metabolised at 0.5 h [6]: 0%
- half-life [7]: 300 min
- hepatocyte CLint [8]: < 1.8 µL/min/1e6 cells
- IC50 [9]: 56 nM
- AUC at 12 h [10]: 1.95 µM·h
- Cmax [11]: 609 nM
- Cmax [12]: 310 nM
- hepatocyte CLint [13]: 3.4 µL/min/1e6 cells
- Vd [14]: 17 L/kg
- metabolised at 0.5 h [15]: 13%
- Vd [16]: 8.4 L/kg
- Tmax [17]: 2.3 h
- clearance [18]: 56 mL/min/kg
- AUC at 12 h [19]: 0.69 µM·h
- Drug transport [20]: 3.2%
- Cmax [21]: 424 nM
- half-life [22]: 258 min
- Tmax [23]: 1.7 h
- hepatocyte CLint [24]: 1.8 µL/min/1e6 cells
- metabolised at 0.5 h [25]: 7%
- AUC [26]: 1.97 µM·h
- bioavailability [27]: 100%
- IC50 [28]: 177 nM
- solubility thermodynamic [29]: 750 µg/mL (≈ 1960 µM)
- Cmax [30]: 2940 nM
- AUC [31]: 10.3 µM·h
Structure (SMILES): OC[C@H]1CCN1c1nc(-c2cnn(C3CCNCC3)c2)cc(C(F)(F)F)n1
- LC20 (Hepatocyte): > 50 µM

- bioavailability [1]: 62%
- half-life [3]: 312 min
- clearance [4]: 5 mL/min/kg
- metabolised at 0.5 h [5]: 4%
- metabolised at 0.5 h [6]: 21%
- half-life [7]: 180 min
- hepatocyte CLint [8]: 12 µL/min/1e6 cells
- IC50 [9]: 12 nM
- AUC at 12 h [10]: 5.09 µM·h
- Cmax [12]: 1910 nM
- hepatocyte CLint [13]: 3.2 µL/min/1e6 cells
- Vd [14]: 2.9 L/kg
- metabolised at 0.5 h [15]: 19%
- IC50 (Ketohexokinase [32]): 84 nM
- Vd [16]: 1.4 L/kg
- clearance [18]: 16 mL/min/kg
- AUC at 12 h [19]: 2.62 µM·h
- Drug transport [20]: 15%
- Cmax [21]: 827 nM
- half-life [22]: 132 min
- Tmax [23]: 1.2 h
- hepatocyte CLint [24]: 2.8 µL/min/1e6 cells
- metabolised at 0.5 h [25]: 7%
- AUC [26]: 9.04 µM·h
- IC50 [28]: 28 nM
- solubility thermodynamic [29]: 39 µg/mL (≈ 95.5 µM)
- Cmax [30]: 2340 nM
Structure (SMILES): C[C@H]1CCN1c1nc(-c2cnn(CC(=O)NCCO)c2)cc(C(F)(F)F)c1C#N
- LC20 (Hepatocyte): > 50 µM

- IC50 [9]: 30 nM
- IC50 [28]: 20 nM
Structure (SMILES): C[C@H]1CCN1c1nc(N2C[C@@H]3[C@@H](CC(=O)O)[C@@H]3C2)cc(C(F)(F)F)n1 [PF-06835919]
- Activity (Mus musculus [33]): Active

- half-life [3]: 1680 min
- clearance [4]: 3 mL/min/kg
- metabolised at 0.5 h [5]: 0%
- metabolised at 0.5 h [6]: 18%
- Drug uptake [35]: Active
- hepatocyte CLint [8]: 2.2 µL/min/1e6 cells
- IC50 [9]: 14 nM
- Cmax [36]: 717 nM
- bioavailability [37]: 83%
- bioavailability [38]: 87%
- AUC [39]: 23.2 µM·h
- fraction unbound at 1 µM [40]: 0.15
- half-life [41]: 780 min
- Cmax [12]: 942 nM
- hepatocyte CLint [13]: < 1.8 µL/min/1e6 cells
- Vd [14]: 6.5 L/kg
- Drug uptake [42]: Active
- metabolised at 0.5 h [15]: 17%
- IC50 (Ketohexokinase [32]): 41 nM
- Vd [16]: 7.8 L/kg
- clearance [18]: 6 mL/min/kg
- fraction unbound at 1 µM [43]: 0.24
- Cmax [44]: 657 nM
- AUC at 12 h [19]: 7.06 µM·h
- Drug transport [20]: 4.4%
- Drug uptake [45]: Active
- half-life [22]: 780 min
- Tmax [46]: 1.7 h
- hepatocyte CLint [24]: < 1.8 µL/min/1e6 cells
- Tmax [47]: 4.7 h
- metabolised at 0.5 h [25]: 28%
- AUC [26]: 12.9 µM·h
- AUC at 12 h [48]: 11.6 µM·h
- fraction unbound at 1 µM [49]: 0.15
- half-life [50]: 2220 min
- solubility thermodynamic [29]: 520 µg/mL (≈ 1270 µM)
- Cmax [30]: 3000 nM
- fraction unbound at 1 µM [51]: 0.18
- IC50 (Ketohexokinase [52]): 20 nM
Structure (SMILES): C[C@H]1CCN1c1nc(-c2cnn(CC(=O)N3CCNCC3)c2)cc(C(F)(F)F)n1 [LY-3522348]
- Activity (Mus musculus [34]): Dose-Dependent Effect
- LC20 (Hepatocyte): > 50 µM
